Source: patent publication US20260166039A1 (SCHRÖDINGER, INC., priority 2022, published 2026)
Read-outs that look alike come from different tables or passages of the source.

Tests used:
[1] = test system: phosphorylation of Cdc2 Y15 (Wee1 substrate) in A427 cells; assay: Phosphorylated Cdc2 MSD Electrochemiluminescence Assay; assay type: cell-based; settings: Homo sapiens
Description: Phosphorylated Cdc2 MSD Electrochemiluminescence Assay
The effect of Wee1 inhibitors on cellular phosphorylation of the Wee1 substrate Cdc2 was determined using the following protocol:
A total of 40,000 A427 cells in 100 uL culture medium (1640 medium+10% Fetal bovine serum+1% Penicillin-Streptomycin) were plated in 96-well cell culture plates. 3-fold serial dilutions of test compounds were prepared in completed PBS at 25× final concentration. After 20 hours, the plates were removed and 4 μL of each were added to the cells and incubated with shaking for 30 minutes at 37° C., 5% CO2. Each concentration was tested in duplicate. After a total 6 hours incubation, plates were removed and centrifuged for 5 minutes and 100 uL of supernatant from each well was removed. Cells were washed with 200 μL PBS and lysed with 50 μL MSD lysis buffer (Meso Scale Diagnostics) supplied with 1× complete ULTRA cocktail inhibitor (Roche).
To detect phosphorylation of Cdc2 Y15, 30 μL of capture antibody solution (CST catalog #9116S 1:200) was added into each well of the MSD plate (MSD catalog #L15XB-6), sealed and incubated at 4° C. with shaking (450 rpm) overnight. The antibody solution was removed, wells blocked with BSA solution and plates washed three times with PBST, followed by addition of 30 μl of cell lysate per well. After 2 hours of incubation, plates were washed three times with PBST. 30 μL of 1× detection antibody solution (CST catalog #4539S 1:200) was then added to each well and incubated for 1 hour. Plates were washed three times with PBST and 30 μL of 1× secondary antibody solution (MSD, catalog #:R32AB-1, 1:5000) was added to each well and incubated for 1 hour. Plates were washed three times with PBST and 150 μL of 1× Read Buffer T (MSD, catalog #R92TC-1) was added to each well of the MSD plate. The electrochemiluminescence signal was measured on a MESO SECTOR S600 plate reader. The percentage of remaining phosphorylated Cdc2 signal was calculated following the equation below.
[formula] • HC (high control): Cells treated with DMSO • Cpds: Cells treated with test compounds • LC (low control): Cells treated with positive control Wee1 inhibitor

[2] = biological target: T1, Wee1 kinase domain (Homo sapiens, UniProt P30291); assay: Wee1 Kinase Biochemical Assay (ADP-Glo); settings: 15 uM ATP
T1 construct: Wee1 kinase domain was purchased from Carna (catalog #05-177); purchased Carna 05-177
Outline: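 Compounds tested against 1 nM Wee1 kinase domain in Tris buffer containing 20 mM MgCl2, BSA and 2 mM DTT, with 15 uM ATP and poly(Lys,Tyr) substrate for 4 h at 25 °C. Luminescent ADP detection gave percent inhibition, normalized to DMSO and saturating inhibitor.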

[3] = A-427, class symbols, read-out: A427 pCDC2 MSD IC50
[4] = class symbols, 1 nM Wee1 enzyme, 4 hours at 25° C.
[5] = 1 nM Wee1 enzyme, 4 hours at 25° C

T1 sequence (P30291 299-569 limits assumed): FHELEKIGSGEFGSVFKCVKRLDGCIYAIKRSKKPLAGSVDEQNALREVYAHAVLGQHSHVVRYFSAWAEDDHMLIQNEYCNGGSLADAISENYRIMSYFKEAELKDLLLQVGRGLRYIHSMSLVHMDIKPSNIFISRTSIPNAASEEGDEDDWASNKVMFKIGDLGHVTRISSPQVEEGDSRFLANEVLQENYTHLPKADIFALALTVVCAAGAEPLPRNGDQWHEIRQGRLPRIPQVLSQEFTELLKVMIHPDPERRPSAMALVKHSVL

| IC50 [1, 3] [µM] | IC50 [2, 4] [µM] | IC50 ([1]; A-427, pCDC2 MSD) [µM] | IC50 ([2]; Wee1 kinase domain, ADP-Glo) [µM] | SMILES | also measured |
| --- | --- | --- | --- | --- | --- |
| 0.1 to 1 | < 0.01 | – | – | CN1CC[C@@H](c2ccc(Nc3ncc4c(n3)N(c3cccc(N5CCCC5=O)n3)[C@@H]3CC(C)(C)OC[C@]43C)cc2)C1 [Example 642, 1-(6-((4bR,8aR)-4b,7,7-trimethyl-2-((4-((S)-1-methylpyrrolidin-3-yl)phenyl)amino)-46,7,8,8a-tetrahydropyrano[3′,4′:4,5]pyrrolo[2,3-d]pyrimidin-9(5H)-yl)pyridin-2-yl)pyrrolidin-2-one] | – |
| – | – | 0.1 to 1 | < 0.01 | CNCc1cccc(N2c3nc(Nc4ccc([C@H]5CC(=O)N(C)C5)cc4)ncc3[C@@]3(C)COC(C)(C)C[C@@H]23)n1 (single isomer, unassigned) [Example 68] | – |
| 0.1 to 1 | < 0.01 | – | – | CNCc1cccc(N2c3nc(Nc4ccc(N5CCOCC5)cc4)ncc3[C@@]3(C)COCC[C@@H]23)n1 (single isomer, unassigned) [Example 572] | – |
| 0.1 to 1 | < 0.01 | – | – | CNCc1cccc(N2c3nc(Nc4ccc([C@@H]5CCNC5)cc4)ncc3[C@@]3(C)COC(C)(C)C[C@@H]23)n1 (single isomer, unassigned) [Example 454] | – |
| – | – | 0.1 to 1 | < 0.01 | CNCc1cccc(N2c3nc(Nc4ccc(N5CCN(C)CC5)cc4)ncc3[C@@]3(C)COC(C)(C)C[C@@H]23)n1 (single isomer, unassigned) [Example 94] | – |
| 0.1 to 1 | < 0.01 | – | – | CC1(C)C[C@H]2N(c3cccc(N4CCCC4=O)n3)c3nc(Nc4ccc([C@@H]5CCNC5)cc4)ncc3[C@@]2(C)CO1 [Example 632, 1-(6-((4bR,8aR)-4b,7,7-trimethyl-2-((4-((S)-pyrrolidin-3-yl)phenyl)amino)-4b,7,8,8a-tetrahydropyrano[3′,4′:4,5]pyrrolo[2,3-d]pyrimidin-9(5H)-yl)pyridin-2-yl)pyrrolidin-2-one] | – |
| – | – | 0.1 to 1 | < 0.01 | CNCc1cccc(N2c3nc(Nc4ccc([C@@H]5CCC(=O)N5C)nc4)ncc3[C@@]3(C)COC(C)(C)C[C@@H]23)n1 (single isomer, unassigned) [Example 96] | – |
| – | – | 0.1 to 1 | < 0.01 | CNCc1cccc(N2c3nc(Nc4ccc(N5CCCCC5)cc4)ncc3[C@@]3(C)COC(C)(C)C[C@@H]23)n1 (single isomer, unassigned) [Example 2] | – |
| – | – | < 0.1 | < 0.01 | CNCc1cccc(N2c3nc(Nc4ccc([C@H]5CCOC5)cc4)ncc3[C@@]3(C)COC(C)(C)C[C@@H]23)n1 (single isomer, unassigned) [Example 40] | – |
| – | – | < 0.1 | < 0.01 | CNC(=O)c1ccc(Nc2ncc3c(n2)N(c2cccc(N=S(C)(C)=O)n2)[C@@H]2CC(C)(C)OC[C@]32C)cc1 (single isomer, unassigned) [Example 117] | – |
| – | 0.01 to 0.1 | – | – | CN1CC[C@@H](Oc2ccc(Nc3ncc4c(n3)N(c3cccc(N5CCOC5=O)n3)[C@H]3CC(C)(C)OC[C@@]43C)cc2)C1 [Example 625, 3-(6-((4bS,8aS)-4b,7,7-trimethyl-2-((4-(((R)-1-methylpyrrolidin-3-yl)oxy)phenyl)amino)-4b,7,8,8a-tetrahydropyrano[3′,4′:4,5]pyrrolo[2,3-d]pyrimidin-9(5H)-yl)pyridin-2-yl)oxazolidin-2-one] | – |
| – | 0.1 to 1 | – | – | CNC1(c2cccc(N3c4nc(Nc5ccc(N6CCOCC6)cc5)ncc4[C@]4(C)COC(C)(C)C[C@H]34)n2)CC1 (single isomer, unassigned) [Example 544] | – |
| – | 0.01 to 0.1 | – | – | CN1CC2(C1)CN(c1ccc(Nc3ncc4c(n3)N(c3cccc(N5CCOC5=O)n3)[C@H]3CC(C)(C)OC[C@@]43C)cc1)C2 [Example 708, 3-(6-((4bS,8aS)-4b,7,7-trimethyl-2-((4-(6-methyl-2,6-diazaspiro[3.3]heptan-2-yl)phenyl)amino)-4b,7,8,8a-tetrahydropyrano[3′,4′:4,5]pyrrolo[2,3-d]pyrimidin-9(5H)-yl)pyridin-2-yl)oxazolidin-2-one] | – |
| – | – | – | 0.01 to 0.1 | C[C@H]1CN(c2ccc(Nc3ncc4c(n3)N(c3cccc(N5C(=O)OC[C@@H]5C)n3)[C@H]3CC(C)(C)OC[C@@]43C)cc2)CCN1C (single isomer, unassigned) [Example 314] | – |
| – | – | – | 0.1 to 1 | CNCc1cccc(N2c3nc(Nc4ccc(N5C[C@@H](C)O[C@@H](C)C5)cc4)ncc3[C@]3(C)COC(C)(C)C[C@H]23)n1 [Example 19, (4bS,8aS)-N-(4-((2S,6R)-2,6-dimethylmorpholino)phenyl)-4b,7,7-trimethyl-9-(6-((methylamino)methyl)pyridin-2-yl)-4b,5,7,8,8a,9-hexahydropyrano[3′,4′:4,5]pyrrolo[2,3-d]pyrimidin-2-amine] | – |

More lines, now with the values behind:

| SMILES | IC50 [1, 3] [µM] | IC50 [2, 4] [µM] | IC50 ([1]; A-427, pCDC2 MSD) [µM] | IC50 ([2]; Wee1 kinase domain, ADP-Glo) [µM] | also measured |
| --- | --- | --- | --- | --- | --- |
| CN1CC(c2ccc(Nc3ncc4c(n3)N(c3cccc(N5CCCC5=O)n3)[C@@H]3CC(C)(C)OC[C@]43C)cc2)C1 [Example 696, 1-(6-((4bR,8aR)-4b,7,7-trimethyl-2-((4-(1-methylazetidin-3-yl)phenyl)amino)-4b,7,8,8a-tetrahydropyrano[3′,4′:4,5]pyrrolo[2,3-d]pyrimidin-9(5H)-yl)pyridin-2-yl)pyrrolidin-2-one] | 0.1 to 1 | < 0.01 | – | – | – |
| C[C@H]1CN(c2cccc(N3c4nc(Nc5ccc(N6CCN(C)CC6)cc5)ncc4[C@@]4(C)COC(C)(C)C[C@@H]34)n2)C(=O)O1 (single isomer, unassigned) [Example 599] | 0.1 to 1 | < 0.01 | – | – | – |
| CNC1(c2cccc(N3c4nc(Nc5ccc(C6CCN(C)CC6)c(C)c5)ncc4[C@]4(C)COC(C)(C)C[C@H]34)n2)CC1 (single isomer, unassigned) [Example 574] | 0.1 to 1 | 0.01 to 0.1 | – | – | – |
| CNCc1cccc(N2c3nc(Nc4ccc(C(C)(C)C(=O)N(C)C)cc4)ncc3[C@@]3(C)COC(C)(C)C[C@@H]23)n1 (single isomer, unassigned) [Example 76] | – | – | 0.1 to 1 | < 0.01 | – |
| CNCc1cccc(N2c3nc(Nc4ccc(N5C6CCC5COC6)cc4)ncc3[C@]3(C)COC(C)(C)C[C@H]23)n1 (single isomer, unassigned) [Example 88] | – | – | 0.1 to 1 | < 0.01 | – |
| CN1C[C@H]2C[C@@H]1CN2c1ccc(Nc2ncc3c(n2)N(c2cccc(C(C)(C)O)n2)[C@@H]2CC(C)(C)OC[C@]32C)cc1 (single isomer, unassigned) [Example 413] | 0.1 to 1 | < 0.01 | – | – | – |
| Cc1cc(Nc2ncc3c(n2)N(c2cccc(N4C(=O)OC[C@@H]4C)n2)[C@@H]2CC(C)(C)OC[C@]32C)ccc1O[C@@H]1CCNC1 (single isomer, unassigned) [Example 337] | – | – | 0.1 to 1 | < 0.01 | – |
| Cc1cc(Nc2ncc3c(n2)N(c2cccc(C(C)(C)O)n2)[C@@H]2CC(C)(C)OC[C@]32C)ccc1N1C[C@@H]2C[C@H]1CN2C (single isomer, unassigned) [Example 429] | 0.1 to 1 | < 0.01 | – | – | – |
| CN(C)Cc1cccc(N2c3nc(Nc4ccc(N5CCOCC5)cc4)ncc3[C@]3(C)COC(C)(C)C[C@H]23)n1 (single isomer, unassigned) [Example 524] | – | 0.1 to 1 | – | – | – |
| C[C@H]1COC(=O)N1c1cccc(N2c3nc(Nc4ccc(O[C@@H]5CCNC5)cc4)ncc3[C@]3(C)COC(C)(C)C[C@H]23)n1 (single isomer, unassigned) [Example 326] | – | – | – | 0.01 to 0.1 | – |
| CC1(C)C[C@H]2N(c3cccc([C@@H]4CCCN4)n3)c3nc(Nc4ccn(C5CCOCC5)c(=O)c4)ncc3[C@@]2(C)CO1 (single isomer, unassigned) [Example 392, 1-(tetrahydro-2H-pyran-4-yl)-4-(((4bR,8aR)-4b,7,7-trimethyl-9-(6-((S)-pyrrolidin-2-yl)pyridin-2-yl)-4b,5,7,8,8a,9-hexahydropyrano[3′,4′:4,5]pyrrolo[2,3-d]pyrimidin-2-yl)amino)pyridin-2(1H)-one] | – | – | 1 to 10 | – | – |
| Cc1cc(Nc2ncc3c(n2)N(c2cccc(N=S(C)(C)=O)n2)C2CC(C)(C)OCC32C)cc(=O)n1C (single isomer, unassigned) [Example 816] | – | – | – | – | IC50 [2, 5]: < 0.01 µM |
| CNCc1cccc(N2c3nc(Nc4ccc(-n5ccnc5)c(F)c4)ncc3[C@]3(C)COC(C)(C)C[C@H]23)n1 (single isomer, unassigned) [Example 465] | – | 0.1 to 1 | – | – | – |
| CN1CCN(c2ccc(Nc3ncc4c(n3)N(c3cnccn3)[C@@H]3CC(C)(C)OC[C@]43C)cc2)CC1 (single isomer, unassigned) [Example 827] | – | – | – | – | IC50 [2, 5]: < 0.01 µM |
